The conditions of data set [1]: octanol/water; of the organic molecule corresponding to the amino acid side chain at position 3, not of the peptide; ref Sangster, 1989; cited from earlier work.
For data set [2], the target named is T1, α‐thrombin (αT) (Homo sapiens, UniProt P00734).
T1 construct: goes from Thr1 of the A-chain to Glu295 of the B-chain
As to the kind of experiment: Tight-binding inhibition of αT amidolytic activity on chromogenic substrate S2238. The class given is biochemical.
Description: Enzyme inhibition assays were all performed at 25 ± 0.1°C in TBS (10 mM Tris–HCl pH 7.4, 0.1% PEG‐8000 w/v) in the presence of 0.15 M or 0.4 M NaCl, using a Jasco double‐beam V‐630 spectrophotometer equipped with a Peltier model PAC‐740 temperature control system (De Filippis et al., [1999]). Tight‐binding inhibition assays were performed by pre‐incubating αT (500 pM) for 30 min with increasing inhibitor concentrations [I]. The reaction started by the addition of the chromogenic substrate S2238 (20 μM) and the release of p‐nitroaniline (pNA) was continuously monitored at 405 nm, using a molar absorptivity of 9920 M^−1∙cm^−1.
(§1) and added with the chromogenic substrate S2238 (100 mM). The values of vi/v0, were plotted as
(§2) a function of the inhibitor, as indicated, where v0 and vi are the steady state velocities in the
(§3) absence or presence of the inhibitor. The data points were interpolated with eq. 3, to yield Kiapp ,
(§4) which was then converted to KI using eq. 4. (B) Slow-binding inhibition. Assays were
(§5) performed by adding aT (50 pM) into a solution of S2238 (40 mM) in the presence of
(§6) Each progress curve was interpolated with
(§7) eq. 5 to obtain the corresponding observed kinetic constant, kobs.Interpolation of the data points
with eq. 6 in the plot of kobs vs. [I], allowed us to estimate the values of kon and koff (see
Methods for details). All measurements were conducted in at 25 ± 0.1°C in TBS, pH 7.4. The
data points are the average of three independent measurements, with error bars as ±SD.

In data set [3] the target is recombinant wild‐type thrombin (Homo sapiens, UniProt P00734). Put plainly: biochemical.
Description: (§8) The reaction was started by addition of the chromogenic substrate S2238 (50 μM). Values of v i/v 0 are plotted as a function of inhibitor concentration, where v 0 and v i are the steady state velocities of S2238 hydrolysis in the absence or presence of inhibitor. Data points are the average of three independent measurements, with errors as ±SD. […] Data points in binding/inhibition measurements are the average of three independent measurements, with errors as ±SD.
(§9) Fluorescence measurements were performed at 25 ± 0.1°C in Tris buffered saline (TBS, 20 mM Tris–HCl, pH 7.4, 0.15 M NaCl, 0.1% PEG‐8000) in a 1 cm‐pathlength cuvette, using a Jasco FP‐6500 spectrofluorimeter, equipped with a Peltier model ETC‐273T temperature control system. […] Briefly, to a solution of αT (50 nM) were added, under gentle magnetic stirring, incremental volumes of ligand stock solutions. The samples were excited at 280 nm (5/5 excitation/emission slit) and the emission intensities were recorded at 334 nm, after subtracting the corresponding spectra of the ligands alone. Fluorescence data were corrected for sample dilution, which was always <2% at the end of the titration. […]
(§10) When the binding of PABA was studied, samples were excited at 336 nm and the emission of PABA was recorded at 376 nm, after baseline subtraction and correction for inner filter effect, as detailed elsewhere (Pontarollo et al., [2017]). […]
The target in data set [4] is thrombin R93A (exosite II) (Homo sapiens, UniProt P00734, R452A). As to the kind of experiment: biochemical.
Description: as §8, §9, §10
In data set [5] the target is T2, αT (Homo sapiens, UniProt P00734, S568A). Also on record: made in house. Particulars: cited from earlier work. An excerpt:
Abstract Hirudin from Hirudo medicinalis is a bivalent α‐Thrombin (αT) inhibitor, targeting the enzyme active site and exosite‐I, and is currently used in anticoagulant therapy along with its simplified analogue hirulog. […] At variance with hirudin, haemadin targets exosite‐II and therefore (besides the free protease) it also blocks thr ... || The relevance of pharmacological applications of hirudin and its analogues has stimulated intensive research on hematophagous organisms, allowing identification of novel αT protein inhibitors, including the isolation of haemadin from the Indian leech Haemadipsa sylvestris (Strube et al., [1993]). […] However, haemadin binds to the fast form only 7‐fold more tightly than to the Na^+‐free (slow) form, with a coupling free energy ΔG c = ΔG b(fast) − ΔG b(slow) = −1.1 kcal/mol. For comparison, full‐length hirudin and its N‐terminal domain 1–47, bind more tightly to the fast form by ~30‐fold (ΔG c = −2.1 kcal/mol), compared to the slow form (De Filippis et al., [2005]; Di Cera et al., [1997]). The higher af ... || (+ 1 further places)

The nature of data set [6]: Thermal denaturation monitored by far‐UV CD. It is filed as physicochemical. Particulars: PBS pH 7.4, protein 0.69 mg/mL; CD at 233 nm (haemadin) or 220 nm (hirudin); heating 40°C·h^−1; inflection point, rough estimate.
Description: CD spectra were recorded on a Jasco J‐810 spectropolarimeter equipped with a Peltier model ETC‐273 T temperature control system (De Filippis, Polverino de Laureto, et al., [1996]). Far and Near UV‐CD spectra were recorded in a 0.1‐ or 1 cm‐pathlength quartz cell at a peptide/protein concentration of 0.47 or 1 mg/mL, respectively. All measurements were performed in phosphate buffered saline (PBS, 10 mM Na2HPO4 pH 7.4, 0.15 M NaCl) at 25 ± 0.1°C. The final spectra resulted from the average of four accumulations after base line subtraction. CD data were expressed as the mean residue ellipticity, [θ] = θ obs·MRW/(10·l·c), where θ obs is the observed signal in degrees, MRW is the mean residue weight, l is the cuvette pathlength in cm, and c is the protein concentration in g∙mL^−1. Stability measurements were carried out by recording the change of the CD signal in the far‐UV region as a function of sample temperature, using a 0.1‐cm pathlength cuvette and linear heating rate of 40°C∙h^−1. The reversibility of thermal unfolding was determined by measuring the recovery of the CD signal upon cooling to the starting temperature. The melting temperature (T m) was estimated from the first‐derivative of the thermal denaturation curve (De Filippis, Vassiliev, et al., [1996]; Frigerio et al., [1996]).
Data set [7] has as its system αT. Particulars: at the Arg‐X bond; ref Maraganore et al., 1990; Lombardi et al., 1996, 1999; cited from earlier work. An excerpt:
The fragment‐based approach is quite common in drug discovery and has been already exploited for the production of hirulogs, hirutonins, and hirunorms as simplified hirudin analogues (Lombardi et al., [1996]; Maraganore et al., [1990]; Szewczuk et al., [1993]). […] As a result, hirulog I (Angiomax®) is slowly ...

Data set [8] concerns the target T2, αT.
In data set [9] the target is T3, α‐Thrombin mutant R93A (exosite II) (Homo sapiens, UniProt P00734, R452A).
T3 construct: made in house
As to the kind of experiment: Slow binding inhibition of thrombin mutant R93A. The class given is biochemical. Conditions: slow binding inhibition model. The method, then: Single X → Ala mutants of αT at either exosite I (Phe34Ala, Lys73Ala, Lys110Ala) and II (Arg93Ala, Arg101Ala) were produced and purified to homogeneity as earlier reported (Acquasaliente et al., [2016]; Pozzi et al., [2013]) (Figure S3) and incubated with haemadin to extract kinetic (k on and k off) and equilibrium (K I) constants of αT inhibition. […]
When slow binding inhibition assays were performed, αT (50 pM) was added to solutions of S2238 (50 μM) in the presence of increasing inhibitor (I) concentrations. From the time‐course release of pNA, [P]t, an observed kinetic constant (k obs) of substrate hydrolysis could be determined as a fitting parameter by interpolating each progress curve at increasing [I] to Equation (5) (Arcone et al., [2009]): (5) Pt=vs∙t+vo−vs/kobs∙1−e^−kobs∙t, where v 0 and v s is the initial or steady state velocity at each [I]. The association (k on) and dissociation (k off) rate constants of αT‐haemedin interaction were determined as fitting parameters by interpolating the data points of k obs as a function of [I] with Equation (6): (6) kobs=kon/1+S/Km∙I+koff. […]

Data set [10] addresses T4, recombinant wild type thrombin (αT) (Homo sapiens, UniProt P00734).
T4 construct: made in house
As to the kind of experiment: Slow binding inhibition of thrombin amidolytic activity (S2238 progress curves). The class given is biochemical. Particulars: slow binding inhibition model (Eq. 5, 6), 25°C, TBS pH 7.4.
Description: as §1, §2, §3, §4, §5, §6, §7
with eq. […]

Values joined by “and” are separate entries in the source; they are usually repeats but may differ in a detail not shown here. Equal entries are not always repeated. Where two headings read alike, the source gives them in different places. Bridge positions count the residues as written; N and C are the ends. Square brackets hold non-standard residues; d marks the D form. Ends that are not written are not given here. Peptide text beside a SMILES is read from it. Dip = N[C@H](C(=O)O)C(c1ccccc1)c1ccccc1; 1Nal = N[C@@H](Cc1cccc2ccccc12)C(=O)O; 2Nal = N[C@@H](Cc1ccc2ccccc2c1)C(=O)O; Cha = N[C@@H](CC1CCCCC1)C(=O)O; Nle = CCCC[C@H](N)C(=O)O

Data on 14 molecules can be found in article PMC10683372 (Protein Science : A Publication of the Protein Society, 2023).

As usually defined, the Log P is a log measure of how a compound divides between an organic and an aqueous phase. In general, Kd refers to the free concentration of one partner at which half of the binding sites on the other are occupied at equilibrium, for simple one-to-one binding. In general, koff refers to a measure of how fast the partners let go of each other. As a reminder, the kon is a measure of how fast the partners come together.

With `CCCC[C@H](NC(=O)CNC(=O)[C@H](Cc1ccc2ccccc2c1)NC(=O)[C@H](CCCNC(=N)N)NC(=O)[C@@H](N)[C@@H](C)CC)C(=O)NCC(=O)N[C@@H](CCCCN)C(=O)N[C@H](C(=O)N1CCC[C@H]1C(=O)NCC(=O)O)C(C)C` [Phe3βNal] (H-IR[2Nal]G[Nle]GKVPG-OH), the lipophilicity (Log P) in data set [1] is reported as 4.00. Besides, the Ki in [2] came out at 190 ± 10 nM.

Take `CCCC[C@H](NC(=O)CNC(=O)[C@H](Cc1ccccc1)NC(=O)[C@H](CCCNC(=N)N)NC(=O)[C@@H](N)[C@@H](C)CC)C(=O)NCC(=O)N[C@@H](CCCCN)C(=O)N[C@H](C(=O)N1CCC[C@H]1C(=O)NCC(=O)O)C(C)C` [Met5Nle] (H-IRFG[Nle]GKVPG-OH): in [1], the lipophilicity (Log P) is given as 2.73. This molecule returned a Ki in data set [2] of 1900 ± 100 nM.

For `CCCC[C@H](NC(=O)CNC(=O)[C@H](Cc1ccc(O)cc1)NC(=O)[C@H](CCCNC(=N)N)NC(=O)[C@@H](N)[C@@H](C)CC)C(=O)NCC(=O)N[C@@H](CCCCN)C(=O)N[C@H](C(=O)N1CCC[C@H]1C(=O)NCC(=O)O)C(C)C` [Phe3Tyr] (H-IRYG[Nle]GKVPG-OH), the “Log P” value in [1] is 1.97. In data set [2], the Ki is 6600 ± 400 nM.

For “Phe3Trp: Phe3′ → Trp analogue of Haem(1–10)”, the Ki in data set [2] (25 ± 0.1°C, TBS, αT 250 pM incubated with peptide, S2238 50 μM, tight‐binding model (Eq. 3, 4), average of three independent measurements ± SD, read-out: K I) was found to be 2900 ± 300 nM.

Take SEFEEFEIDEEEK [Haem(45–57)]: the equilibrium dissociation constant (Kd) in [3] is 1600 nM; in data set [4], 1180 ± 90 nM.

Consider VSYTD [reference compound], for which the “inhibition of αT” value in [2] (not shown) is on record as “lacks any significant inhibition”.

On to `CCCC[C@H](NC(=O)CNC(=O)[C@H](Cc1cccc2ccccc12)NC(=O)[C@H](CCCNC(=N)N)NC(=O)[C@@H](N)[C@@H](C)CC)C(=O)NCC(=O)N[C@@H](CCCCN)C(=O)N[C@H](C(=O)N1CCC[C@H]1C(=O)NCC(=O)O)C(C)C` [Phe3αNal] (H-IR[1Nal]G[Nle]GKVPG-OH), for which, in [1], the “Log P” value is 4.00.

Turning to hirudin, in data set [5] (fast vs slow form, ref De Filippis et al., 2005, Di Cera et al., 1997), the “coupling free energy ΔG c” value is -2.1 kcal/mol. Also, the “fold tighter binding to fast form than to slow form” value in data set [5] (ref De Filippis et al., 2005, Di Cera et al., 1997) was ~ 30 fold. The “melting temperature (T m)” value in [6] was 63 ± 1 °C and ~ 63 °C.

“hirulog I: synthetic bivalent analogue of hirudin”: the “cleavage by αT” value in [7] is recorded as “slowly cleaved”.

Regarding `CCCC[C@H](NC(=O)CNC(=O)[C@H](CC1CCCCC1)NC(=O)[C@H](CCCNC(=N)N)NC(=O)[C@@H](N)[C@@H](C)CC)C(=O)NCC(=O)N[C@@H](CCCCN)C(=O)N[C@H](C(=O)N1CCC[C@H]1C(=O)NCC(=O)O)C(C)C` [Phe3Cha] (H-IR[Cha]G[Nle]GKVPG-OH), in data set [1], the “Log P” value is 3.88. In data set [2], this molecule registered a Ki of 3800 ± 100 nM.

Take `CCCC[C@H](NC(=O)CNC(=O)[C@H](Cc1ccc2ccccc2c1)NC(=O)[C@H](CCCNC(=N)N)NC(=O)[C@@H](N)[C@@H](C)CC)C(=O)NCC(=O)N[C@@H](CCCCN)C(=O)N[C@H](C(=O)N1CCC[C@H]1C(=O)NCC(=O)NCC(=O)NCC(=O)N1CCC[C@H]1C(=O)N[C@@H](CCCCN)C(=O)N1CCC[C@H]1C(=O)N[C@@H](CO)C(=O)N[C@@H](CO)C(=O)N[C@@H](CCC(=O)O)C(=O)N[C@@H](Cc1ccccc1)C(=O)N[C@@H](CCC(=O)O)C(=O)N[C@@H](CCC(=O)O)C(=O)N[C@@H](Cc1ccccc1)C(=O)N[C@@H](CCC(=O)O)C(=O)N[C@H](C(=O)N[C@@H](CC(=O)O)C(=O)N[C@@H](CCC(=O)O)C(=O)N[C@@H](CCC(=O)O)C(=O)N[C@@H](CCC(=O)O)C(=O)N[C@@H](CCCCN)C(=O)O)[C@@H](C)CC)C(C)C` [haemanorm] (H-IR[2Nal]G[Nle]GKVPGGGPKPSSEFEEFEIDEEEK-OH): the “resistance to proteolysis by αT at the Arg2‐βNal bond” value in [8] is on record as “fully resistant”. Also, the Ki in data set [2] was 0.8 nM.

As to `CCCC[C@H](NC(=O)CNC(=O)[C@@H](NC(=O)[C@H](CCCNC(=N)N)NC(=O)[C@@H](N)[C@@H](C)CC)C(c1ccccc1)c1ccccc1)C(=O)NCC(=O)N[C@@H](CCCCN)C(=O)N[C@H](C(=O)N1CCC[C@H]1C(=O)NCC(=O)O)C(C)C` [Phe3DiP] (H-IR[Dip]G[Nle]GKVPG-OH), in [1], the “Log P” value is listed as 4.80. Besides, the Ki in data set [2] is 7400 ± 400 nM.

In the case of “N‐terminal domain 1–40: N‐terminal domain 1–40 of haemadin (Richardson et al., 2002)”, the Ki in data set [5] (ref Richardson et al., 2002) was 5 nM.

“IRFGMGKVPCPDGEVGYTCDCGEKICLYGQSCNDGQCSGDPKPSSEFEEFEIDEEEK (disulfide 10-19, 21-32, 26-37) [haemadin]”: the koff in data set [9] worked out at 3.68e-05 ± 1e-07 s⁻¹; in [10], 4.83e-05 ± 2e-07 s⁻¹. Further, the kon came out at 2.998e+08 ± 300000 M⁻¹ s⁻¹ in data set [9] and 2.253e+08 ± 200000 M⁻¹ s⁻¹ in data set [10] (αT 50 pM added to S2238 plus inhibitor). Moreover, in data set [2], the Ki worked out at 0.0015 ± 5e-05 nM.
